Values of other authors in patent US20250064735A1, “CONTAINER SYSTEM AND PHARMACEUTICAL FOAM COMPOSITION COMPRISING BETAMETHASONE” (Glenmark Pharmaceuticals Limited, priority 2018, published 2025).

| Compound | pH at which the substance is stable |
| --- | --- |
| CC1C[C@H]2[C@@H]3CCC4=CC(=O)C=C[C@]4(C)[C@@]3(F)C(O)C[C@]2(C)[C@@]1(O)C(=O)CO (some centres unmarked) [Betamethasone, 9-fluoro-11,17,21-trihydroxy-16-methylpregna-1,4-diene-3,20-dione] | 4-6 |
| C=C1/C(=C\C=C2/CCC[C@]3(C)[C@@H]([C@H](C)/C=C/[C@@H](O)C4CC4)CC[C@@H]23)C[C@@H](O)C[C@@H]1O [Calcipotriene] | greater than 8 |
